These results are taken from patent US9844540B2, “Combination therapies for treating cancer” (RedHill Biopharma Ltd., priority 2015, dated 2017).

Assay [1] has as its system Hep-G2 (liver). The experiment in a line: Tumor cell line panel, sulforhodamine B, Hep-G2. The settings on record: Homo sapiens, HepG2, 48 hours, mean ± sd. In kind it is cell-based. Here is the method:
(§1) To examine the range of anticancer, the chemotherapeutic potency of ABC294640 towards a panel of varied human tumor cell lines representing several major tumor types were determined. […] [table]

The subject of assay [2] is T24 (bladder). The experiment in a line: Tumor cell line panel, sulforhodamine B, T24. Conditions: Homo sapiens, 48 hours, mean ± sd. The assay is classed as cell-based. Here is the method: as §1

For the compound `O=C(NCc1ccncc1)C12CC3CC(C1)CC(c1ccc(Cl)cc1)(C3)C2` [Compound 62, 3-(4-Chloro-phenyl)-adamantane-1-carboxylic acid(pyridin-4-ylmethyl)-amide], the IC50 was found to be 6 ± 2.6 µM in assay [1] and 39.4 ± 7.4 µM in assay [2].
